Key:
[1] = Example 1: stability of active ingredient at 300 ppm in severe test waters, assay after 4 hours at room temperature; type: physicochemical; settings: for pH: after 4 hours at room temperature; for assay (as percent of original): 4 hours, room temperature
Experimental: The stability of the active ingredient formulated as above is compared with that of the pure technical material at 300 ppm in:
(a) a basic, soda-ash softened water of initial pH 10.2 with 0.66 × 10^-3 N basicity, primarily as carbonate, and
(b) a strong "sodium bicarbonate" water (prepared to match a Montana well water) with pH 8.8 and 13 × 10^-3 N basicity.
After 4 hours at room temperature in these severe test waters, the following pH readings and assays (as percent of original) were obtained.

[2] = Example 2: stability of substituted acetamide in mixtures with commercial fungicides, 4 hour assay and 1-4 hour pH range; type: physicochemical; settings: particularly in basic water
Experimental: is prepared by blending and hammer milling.
(b) 2-cyano-N-ethylcarbamoyl-2-methoxyiminoacetamide is finely ground.
The materials above are mixed with the following commercial fungicides in a ratio to provide 1 part of active compound of (a) or (b) with the indicated parts of commodity listed:
The mixtures are then added to distilled water in one case and 4.7 × 10^-3 N sodium bicarbonate (chosen to represent rather alkaline water) in the other case, at a rate to provide about 150 ppm of substituted acetamide. After 4 hours, the suspensions are assayed to determine the present substituted acetamide remaining. The pH during the 1-4 hour period is also recorded.

## CCNC(=O)NC(=O)C(C#N)=NOC [pure compound, 2-cyano-N-ethylcarbamoyl-2-methoxyiminoacetamide]
[1]; water a)
  pH: 7.7
[1]; water a): soda-ash softened, initial pH 10.2, 0.66 × 10^-3 N basicity
  assay (as percent of original): 43% of original
[1]; water b)
  pH: 8.2
[1]; water b): strong sodium bicarbonate water, pH 8.8, 13 × 10^-3 N basicity
  assay (as percent of original): 16% of original
[2]
  effect of acidulant on stability in mixtures with commercial fungicides: the acidulant improves stability

Reference: patent US4101669A (priority 1977, dated 1978)
